{"source": "paper PMC4742234", "about": "“Screening of Drug Metabolizing Enzymes for the Ginsenoside Compound K In Vitro: An Efficient Anti-Cancer Substance Originating from Panax Ginseng” (PLoS ONE, 2016)", "key": {"CYP2C9 [1]": {"target": "T1, CYP2C9 (Homo sapiens, UniProt P11712)", "T1 sequence (P11712 whole entry, canonical isoform)": "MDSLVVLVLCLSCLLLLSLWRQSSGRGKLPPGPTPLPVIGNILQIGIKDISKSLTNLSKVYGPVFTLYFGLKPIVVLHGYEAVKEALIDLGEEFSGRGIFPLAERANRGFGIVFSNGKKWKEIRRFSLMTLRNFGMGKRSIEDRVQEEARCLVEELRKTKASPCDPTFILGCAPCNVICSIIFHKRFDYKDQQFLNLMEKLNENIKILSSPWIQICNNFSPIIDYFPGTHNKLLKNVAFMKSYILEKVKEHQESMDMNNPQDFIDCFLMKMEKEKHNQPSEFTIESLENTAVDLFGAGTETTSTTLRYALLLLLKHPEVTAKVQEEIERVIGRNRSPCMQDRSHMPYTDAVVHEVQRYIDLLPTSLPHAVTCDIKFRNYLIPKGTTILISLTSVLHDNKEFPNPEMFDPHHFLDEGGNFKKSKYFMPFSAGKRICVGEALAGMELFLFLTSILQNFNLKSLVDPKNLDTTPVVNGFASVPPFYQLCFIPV", "experiment": "Effect of specific inhibitor sulfaphenazole on CK metabolism in HLMs", "assay_type": "in vitro ADME", "design": "tissue Cypex Ltd. (U.K.); host or cells: pooled human liver microsomes", "conditions": "CK 50 μM, in the presence of sulfaphenazole 1 μM", "protocol": "(§1) The method was conducted according to our previous study with some modifications. The CYP isoform-specific probe reactions used were phenacetin O-deethylation (for CYP1A2), coumarin 7-hydroxylation (for CYP2A6), tolbutamide 4-hydroxylation (for CYP2C9), metoprolol α-hydroxylation (for CYP2D6), chlorzoxazone 6-hydroxylation (for CYP2E1),S-Mephenytoin 4-hydroxylation (for CYP2C19), and midazolam 1-hydroxylation (for CYP3A4). The kinetic study of CK was conducted with HLMs. A 0.2 mL incubation mixture that consisted of CK (as a substrate), the HLMs (0.5 mg/mL) or CYP isoforms (10 pmol), and 0.1 M sodium phosphate buffer (pH 7.4) was pre-warmed for 5 min at 37°C. The reaction was initiated by the addition of 1 mg/mL triphosphopyridine nucleotide (NADPH). […]\nTo screen the specific CYP isoform responsible for the CK metabolism, we determined the inhibitory effect of specific inhibitors on the metabolism of CK in the HLMs as described in detail previously. […] The inhibitory effects of the above specific inhibitors on the metabolic clearance rate of CK were evaluated separately to screen the CYP isoforms responsible for the CK metabolism. The relative activity of the CYP isoforms was calculated by dividing the peak area of CK when incubated with the inhibitor by that of CK from the negative controls. […]"}, "CYP3A4": {"system": "CYP3A4", "design": "method as in Hao et al.(2008)", "conditions": "baculosomes, ref Hao et al.(2008); cited from earlier work"}, "CYP2C9 [2]": {"target": "T1, CYP2C9", "experiment": "Kinetic analysis of CK metabolism by recombinant CYP2C9", "assay_type": "in vitro ADME", "design": "purchased Cypex Ltd. (U.K.)", "conditions": "recombinant CYP2C9 10 pmol, CK 10–100 μM", "protocol": "as §1\nThe kinetic parameters for the metabolism of CK were determined by incubating increasing concentrations of CK (10–100 μM) at 37°C with the HLMs and NADPH under the incubation conditions as described in detail previously. The equation of CK reaction velocity (V) in the HLMs or CYP isoforms is expressed as V = (C0–Ct)/T/Cp, where C0and Ct are the initial and final concentrations of CK in the incubation solution, respectively, T is the incubation time (min), and Cp is the protein concentration (mg/mL or nmol). All values were expressed as the mean±standard deviation (SD). […]"}}, "note": "“And” between values parts separate entries of the source, which are not always exact repeats. Equal entries are not always repeated.", "data": [{"molecule": "CC(C)=CCC[C@](C)(OC1O[C@H](CO)[C@@H](O)[C@H](O)[C@H]1O)[C@H]1CC[C@]2(C)[C@@H]1[C@H](O)C[C@@H]1[C@@]3(C)CC[C@H](O)C(C)(C)[C@@H]3CC[C@]12C", "note": "(stereo partly drawn) [CK, 20-O-β-(D-glucopyranosyl)-20(S)-protopanaxadiol]", "values": [{"measurement": "metabolic clearance rate (MCR) of CK, of that of the control", "setting": "CYP2C9 [1]", "value": "73.5±20.9% and 73.5%"}, {"measurement": "CYP3A4 inhibition", "setting": "CYP3A4", "value": "moderate"}, {"measurement": "Vmax of CK metabolism", "setting": "CYP2C9 [2]", "value": "0.45±0.05 nmol/nmol P450/min and 0.4537 nmol/nmol P450/min"}]}]}
